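Compound exposure: 48 hours, 5 concentrations, 96-well plates. Here, GI50 denotes the concentration required for 50% inhibition of growth. Definition used: TGI = concentration required for complete inhibition of growth.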

Some test systems named below: HCT-116 colon; LOX IMVI melanoma; LXFL 529 NSCLC; M19-MEL melanoma; NCI-H522 lung; UACC-257 melanoma; BT-549 breast; DU-145 prostate; HCC-2998 colon; SK-MEL-5 melanoma.
Common to all, as to assay: growth of human tumour cells (NCI), 48 h

With `NNC(=O)N/N=C(/CC1(O)C(=O)Nc2ccc(Br)cc21)c1ccccc1` (configuration not stated), the TGI in the assay on HCT-116 colon was 72.6 µM; in the assay with LOX IMVI melanoma, 35.1 µM; in the assay on LXFL 529 NSCLC, greater than 100 µM; in the assay on M19-MEL melanoma, greater than 100 µM; with NCI-H522 lung, 46.6 µM; in the assay on UACC-257 melanoma, greater than 100 µM.

Turning to `N#CC(Cl)CS(=O)(=O)c1ccccc1` (configuration not stated), the TGI in the assay with BT-549 breast stood at 30.9 µM; in the assay with DU-145 prostate it was 32.4 µM; in the assay on HCC-2998 colon, 29.4 µM; in the assay on HCT-116 colon, 12.2 µM; in the assay on LOX IMVI melanoma, 22 µM; in the assay with M19-MEL melanoma it was 29.2 µM. In addition, the TGI with NCI-H522 lung was found to be 2.26 µM; with SK-MEL-5 melanoma it was 29.6 µM; in the assay with UACC-257 melanoma, 14 µM.

With `COc1ccc(C(=O)C(c2ccc(OC)cc2)C2(O)C(=O)Nc3c(Cl)cc(Cl)cc32)cc1` (configuration not stated), the TGI with LOX IMVI melanoma was determined as 44 µM; in the assay on LXFL 529 NSCLC, 28.4 µM; in the assay with NCI-H522 lung, 35.2 µM; with SK-MEL-5 melanoma, 34.7 µM; in the assay with UACC-257 melanoma it was 31.7 µM.

As for `O=C1C=C(Nc2cc(Cl)ccc2Cl)c2ccccc2C1=O`, the TGI in the assay on HCC-2998 colon was greater than 100 µM; in the assay with HCT-116 colon, greater than 100 µM; in the assay with M19-MEL melanoma, 29.2 µM; in the assay with UACC-257 melanoma it was 41.8 µM.

Consider `CC(=O)[CH-]C(=O)c1ccccc1.CC(=O)[CH-]C(=O)c1ccccc1.CC[C@H](CCC(C)[C@H]1CCC2[C@@H]3CC=C4C[C@@H]([O-])CC[C@]4(C)C3CC[C@@]21C)C(C)C.CC[C@H](CCC(C)[C@H]1CCC2[C@@H]3CC=C4C[C@@H]([O-])CC[C@]4(C)C3CC[C@@]21C)C(C)C.Cl.[Ti+4]` (some centres not stated), for which the TGI in the assay with HCC-2998 colon, in the assay on HCT-116 colon, with LOX IMVI melanoma, with LXFL 529 NSCLC, with NCI-H522 lung and in the assay on SK-MEL-5 melanoma was greater than 25 µM in each case. The TGI with UACC-257 melanoma is greater than 25 µM. Also, the GI50 in the assay with LXFL 529 NSCLC is greater than 25 µM.

For `COC1(OC)CCC2(C)OC(c3ccccc3)C1O2` (configuration not stated), the TGI in the assay with HCC-2998 colon, in the assay with HCT-116 colon, in the assay on LOX IMVI melanoma, with LXFL 529 NSCLC, in the assay on NCI-H522 lung and with UACC-257 melanoma was greater than 100 µM each time.

Consider `O=C1CCC2(c3ccccc3)OCC([C@@H](O)c3ccccc3)N12` (some centres not stated), for which the TGI with HCT-116 colon, with LOX IMVI melanoma, with M19-MEL melanoma, with SK-MEL-5 melanoma and with UACC-257 melanoma was greater than 100 µM throughout.

As for `Oc1ccc(I)c2cccnc12`, the TGI in the assay with HCT-116 colon was greater than 100 µM; with LOX IMVI melanoma, 46.3 µM; in the assay on LXFL 529 NSCLC, greater than 100 µM; in the assay with M19-MEL melanoma it was 76.8 µM; in the assay on NCI-H522 lung, 7.2 µM; in the assay with UACC-257 melanoma it was 73.8 µM.

Consider `C=CCc1cc(OC)c(O)c(C(=O)/C=C/c2ccc(OC)c(OC)c2)c1`, for which the TGI in the assay on HCC-2998 colon came out at 38.6 µM; in the assay with HCT-116 colon, 27.6 µM; in the assay with LOX IMVI melanoma, 91.8 µM; in the assay on LXFL 529 NSCLC, 54.7 µM; with NCI-H522 lung, 7.08 µM; in the assay on SK-MEL-5 melanoma it was 36.6 µM. Moreover, the TGI in the assay with UACC-257 melanoma is 37.4 µM.

Take `O=C1NC(=NCCc2ccccc2F)S/C1=C\c1ccc2ncccc2c1`: the GI50 in the assay on BT-549 breast is 6.48 µM; in the assay with DU-145 prostate, 8.81 µM; with HCC-2998 colon it was 8.55 µM; in the assay on HCT-116 colon, 1.27 µM; in the assay on LOX IMVI melanoma it was 1.82 µM; in the assay with NCI-H522 lung, 4.74 µM. In addition, the GI50 was 5.85 µM in the assay with SK-MEL-5 melanoma and 9.35 µM in the assay on UACC-257 melanoma. Further, the TGI in the assay on BT-549 breast is greater than 25 µM; in the assay with DU-145 prostate, greater than 25 µM; with HCC-2998 colon, greater than 25 µM; with HCT-116 colon it was greater than 25 µM; in the assay on LOX IMVI melanoma, greater than 25 µM; in the assay with NCI-H522 lung it was 16.9 µM. Further, the TGI is 19.4 µM in the assay with SK-MEL-5 melanoma and greater than 25 µM with UACC-257 melanoma.

Take `C/C(=N\O)C1CC(CC(=O)O)C1(C)C` (configuration not stated): the TGI with BT-549 breast, in the assay with DU-145 prostate, in the assay on HCC-2998 colon, in the assay on HCT-116 colon, in the assay with LOX IMVI melanoma and with NCI-H522 lung was greater than 100 µM in each case. In addition, the TGI in the assay on SK-MEL-5 melanoma and with UACC-257 melanoma was greater than 100 µM each time.

Take `Cn1ccc(S(=O)(=O)N2CCC[C@H](Nc3nccc(-c4c(-c5cccc(O)c5)nc5occn45)n3)C2)n1`: the GI50 is 12.7 µM in the assay with BT-549 breast; 16.6 µM in the assay with DU-145 prostate; 15 µM in the assay on HCC-2998 colon; 3.93 µM in the assay with HCT-116 colon; 2.87 µM in the assay with LOX IMVI melanoma; 13 µM in the assay on NCI-H522 lung. Besides, the GI50 with SK-MEL-5 melanoma was 3.51 µM; with UACC-257 melanoma, 0.224 µM. The TGI in the assay with BT-549 breast was 52.9 µM; in the assay with DU-145 prostate it was greater than 100 µM; with HCC-2998 colon, 34.3 µM; in the assay on HCT-116 colon, 32.4 µM; with LOX IMVI melanoma, 18.7 µM; in the assay on NCI-H522 lung, 36.4 µM. The values for the TGI in the assay on SK-MEL-5 melanoma and in the assay with UACC-257 melanoma were 18.6 µM and 90.7 µM, respectively.

Consider `Cc1ccc2c(-c3ccnc(Nc4cccc(C(F)(F)F)c4)n3)c(-c3ccccc3)nn2n1`, for which the GI50 was 15 µM with BT-549 breast; 12.3 µM with DU-145 prostate; 5.99 µM in the assay on HCC-2998 colon; 4.32 µM in the assay with HCT-116 colon; 4.92 µM in the assay with LOX IMVI melanoma; 5.73 µM in the assay on NCI-H522 lung. The results for the GI50 in the assay with SK-MEL-5 melanoma and in the assay with UACC-257 melanoma were 4.05 µM and 8.31 µM, respectively. Besides, the TGI in the assay on BT-549 breast is greater than 24 µM; in the assay on DU-145 prostate, 24.4 µM; in the assay with HCC-2998 colon, 16.1 µM; in the assay on HCT-116 colon, greater than 12.2 µM; with LOX IMVI melanoma, greater than 17.2 µM; with NCI-H522 lung, greater than 14.7 µM. Besides, the TGI was 7.94 µM in the assay on SK-MEL-5 melanoma and greater than 16.6 µM in the assay with UACC-257 melanoma.

Take `Cn1cc(Nc2nccc(-c3ccc4c(c3)CN(C3COC3)CC[C@H]4NC(=O)c3cn(C(C)(C)C)nn3)n2)cn1`: the GI50 in the assay with BT-549 breast was greater than 100 µM; with DU-145 prostate, greater than 100 µM; in the assay on HCC-2998 colon, greater than 100 µM; in the assay with HCT-116 colon, 73.6 µM; with LOX IMVI melanoma, 38.5 µM; in the assay with NCI-H522 lung it was 96.1 µM. Further, the values for the GI50 in the assay with SK-MEL-5 melanoma and in the assay on UACC-257 melanoma were 26.3 µM and greater than 100 µM, respectively. Moreover, the TGI in the assay with BT-549 breast, with DU-145 prostate, with HCC-2998 colon, in the assay with HCT-116 colon, in the assay on LOX IMVI melanoma and in the assay with NCI-H522 lung was greater than 100 µM each time. The TGI with SK-MEL-5 melanoma and in the assay on UACC-257 melanoma was greater than 100 µM throughout.

In the case of `COc1cc(C(=O)/C=C/c2cccnc2Nc2ccc(Cl)cc2)cc(OC)c1OC`, the GI50 is 1.5 µM in the assay with BT-549 breast; 1.63 µM in the assay on DU-145 prostate; 1.52 µM in the assay with HCC-2998 colon; 0.568 µM in the assay on HCT-116 colon; 1.27 µM in the assay with LOX IMVI melanoma; 1.46 µM in the assay with NCI-H522 lung. For the same compound, the GI50 in the assay with SK-MEL-5 melanoma and in the assay on UACC-257 melanoma was 1.5 µM in each case. In addition, the TGI came out at 2.85 µM with BT-549 breast; 2.98 µM in the assay on DU-145 prostate; 2.89 µM in the assay with HCC-2998 colon; 1.84 µM with HCT-116 colon; 2.59 µM in the assay on LOX IMVI melanoma; 3 µM in the assay on NCI-H522 lung. Moreover, the results for the TGI in the assay with SK-MEL-5 melanoma and in the assay on UACC-257 melanoma were 2.84 µM and 2.92 µM, respectively.

For `Cc1ccc(/C=C(/C#N)n2nnc3cccc(F)c32)cc1`, the GI50 in the assay on BT-549 breast was 0.634 µM; in the assay on DU-145 prostate, 0.332 µM; in the assay with HCC-2998 colon, 1.11 µM; in the assay with HCT-116 colon, 0.379 µM; in the assay on LOX IMVI melanoma, 0.409 µM; with NCI-H522 lung it was 0.194 µM. Further, the GI50 is 0.423 µM in the assay with SK-MEL-5 melanoma and 1.13 µM in the assay on UACC-257 melanoma. For the same compound, the TGI amounted to 8.99 µM with BT-549 breast; 7.13 µM in the assay with DU-145 prostate; 5.15 µM with HCC-2998 colon; 6.54 µM with HCT-116 colon; 1.81 µM in the assay on LOX IMVI melanoma; 14.9 µM in the assay on NCI-H522 lung. The values for the TGI in the assay on SK-MEL-5 melanoma and in the assay on UACC-257 melanoma were 4.22 µM and 39.9 µM, respectively.

Turning to `NC(=O)NC(=O)Nc1ccc(Br)cc1`, the TGI is greater than 100 µM in the assay with BT-549 breast; greater than 100 µM in the assay with DU-145 prostate; greater than 31.9 µM with HCC-2998 colon; greater than 49.6 µM in the assay on HCT-116 colon; greater than 56.9 µM in the assay with LOX IMVI melanoma; greater than 40 µM in the assay on NCI-H522 lung. In addition, the TGI with SK-MEL-5 melanoma is greater than 18.6 µM; with UACC-257 melanoma, greater than 100 µM.

`N#C/C(=C\c1ccc(O)c(O)c1)C(=O)NCc1cccc(C(F)(F)F)c1`: the GI50 is 5.99 µM with BT-549 breast; 12.1 µM in the assay on DU-145 prostate; 10.3 µM with HCC-2998 colon; 3.79 µM in the assay with HCT-116 colon; 11.4 µM with LOX IMVI melanoma; 7.71 µM in the assay with NCI-H522 lung. Further, the GI50 is 5.29 µM in the assay with SK-MEL-5 melanoma and 12.2 µM in the assay with UACC-257 melanoma. In addition, the TGI in the assay on BT-549 breast was found to be 34.4 µM; in the assay on DU-145 prostate, 50.9 µM; in the assay with HCC-2998 colon, 22.2 µM; with HCT-116 colon, 17.4 µM; in the assay with LOX IMVI melanoma, 26.4 µM; in the assay with NCI-H522 lung, 63.2 µM. Besides, the values for the TGI in the assay with SK-MEL-5 melanoma and in the assay with UACC-257 melanoma were 19.3 µM and 52.5 µM, respectively.

For `COC(=O)C1C(=O)C(C(=O)OC)C2CCC1N2C` (configuration not stated), the TGI in the assay on BT-549 breast was 27.3 µM; with DU-145 prostate, greater than 100 µM; with HCC-2998 colon it was greater than 100 µM; in the assay with HCT-116 colon, greater than 83.2 µM; in the assay on LOX IMVI melanoma, greater than 83.1 µM; in the assay on NCI-H522 lung, greater than 100 µM. Also, the TGI in the assay with SK-MEL-5 melanoma and in the assay on UACC-257 melanoma was greater than 100 µM throughout.

The values above are taken from PubChem BioAssay (NCI).
